# In ChEMBL document CHEMBL4000220, “Optimization of spirocyclic proline tryptophan hydroxylase-1 inhibitors” (Bioorg Med Chem Lett, 2017):
# Key:
# [1] = system: Rattus norvegicus; assay: Cmax in rat assessed as (S)-8-(2-amino-6-((R)-1-(3',4'-dimethyl-3-(3-methyl-1H-pyrazol-1-yl)biphenyl-4-yl)-2,2,2-trifluoroethoxy)pyrimidin-4-yl)-2,8-diazaspiro[4.5]decane-3-carboxylic acid level at 25 mg/kg, po; assay type: ADME, organism-based; design: dose 25 mg/kg, route oral; conditions: in vivo
# [2] = system: Mus musculus; assay: In vivo inhibition of TPH1 in mouse assessed as reduction in 5-HT level in intestinal mucosa at 50 mg/kg, po administered daily as single dose relative to control; assay type: functional
# [3] = system: Rattus norvegicus; assay: Half life in rat assessed as (S)-8-(2-amino-6-((R)-1-(3',4'-dimethyl-3-(3-methyl-1H-pyrazol-1-yl)biphenyl-4-yl)-2,2,2-trifluoroethoxy)pyrimidin-4-yl)-2,8-diazaspiro[4.5]decane-3-carboxylic acid level at 1 mg/kg, iv; assay type: ADME, organism-based; conditions: in vivo
# [4] = system: Rattus norvegicus; assay: AUC (0 to last) in rat assessed as (S)-8-(2-amino-6-((R)-1-(3',4'-dimethyl-3-(3-methyl-1H-pyrazol-1-yl)biphenyl-4-yl)-2,2,2-trifluoroethoxy)pyrimidin-4-yl)-2,8-diazaspiro[4.5]decane-3-carboxylic acid level at 25 mg/kg, po; assay type: ADME, organism-based; design: dose 25 mg/kg, time 0 - last, route oral; conditions: in vivo
# [5] = system: Rattus norvegicus; assay: (§1) Volume of distribution at steady state in rat at 1 mg/kg, iv; assay type: ADME, organism-based; conditions: in vivo
# [6] = system: Mus musculus; assay: Drug level in mouse treated with (S)-ethyl 8-(2-amino-6-((R)-1-(5-chlorobiphenyl-2-yl)-2,2,2-trifluoroethoxy)pyrimidin-4-yl)-2,8-diazaspiro[4.5]decane-3-carboxylate at 10 to 50 mg/kg, po administered as single dose; assay type: ADME, organism-based; conditions: in vivo
# [7] = system: Rattus norvegicus; assay: (§2) Half life in rat at 1 mg/kg, iv; assay type: ADME, organism-based; conditions: in vivo
# [8] = system: Canis familiaris; assay: Clearance in beagle dog at 1 mg/kg, iv relative to hepatic blood flow; assay type: ADME, organism-based, Canis lupus familiaris; conditions: in vivo
# [9] = Clearance in beagle dog at 1 mg/kg, iv; assay type: ADME, organism-based, Canis lupus familiaris; conditions: in vivo
# [10] = (§3) Volume of distribution at steady state in beagle dog at 1 mg/kg, iv; assay type: ADME, organism-based, Canis lupus familiaris; conditions: beagle, in vivo, read-out: Vdss
# [11] = (§4) Half life in beagle dog at 1 mg/kg, iv; assay type: ADME, organism-based, Canis lupus familiaris; conditions: beagle, in vivo
# [12] = biological target: T1, Tryptophan 5-hydroxylase 1 (Homo sapiens, UniProt P17752)
# T1 sequence (P17752 whole entry): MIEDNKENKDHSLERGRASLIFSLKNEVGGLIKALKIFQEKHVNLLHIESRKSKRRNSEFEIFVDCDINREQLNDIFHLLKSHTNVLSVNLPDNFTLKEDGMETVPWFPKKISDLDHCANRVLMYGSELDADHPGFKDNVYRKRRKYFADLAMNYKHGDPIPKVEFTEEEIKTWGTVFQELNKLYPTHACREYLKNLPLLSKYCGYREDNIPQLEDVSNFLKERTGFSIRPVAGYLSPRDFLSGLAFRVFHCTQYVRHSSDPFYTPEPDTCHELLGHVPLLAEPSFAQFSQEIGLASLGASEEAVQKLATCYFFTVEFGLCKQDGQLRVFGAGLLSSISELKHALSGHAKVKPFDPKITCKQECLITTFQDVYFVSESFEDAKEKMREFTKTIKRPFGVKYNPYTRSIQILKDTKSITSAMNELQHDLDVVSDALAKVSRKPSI
# Description: Inhibition of TPH1 (unknown origin)
# [13] = biological target: T2, Tryptophan 5-hydroxylase 2 (Homo sapiens, UniProt Q8IWU9); assay: Inhibition of TPH2 (unknown origin)
# T2 sequence (Q8IWU9 whole entry): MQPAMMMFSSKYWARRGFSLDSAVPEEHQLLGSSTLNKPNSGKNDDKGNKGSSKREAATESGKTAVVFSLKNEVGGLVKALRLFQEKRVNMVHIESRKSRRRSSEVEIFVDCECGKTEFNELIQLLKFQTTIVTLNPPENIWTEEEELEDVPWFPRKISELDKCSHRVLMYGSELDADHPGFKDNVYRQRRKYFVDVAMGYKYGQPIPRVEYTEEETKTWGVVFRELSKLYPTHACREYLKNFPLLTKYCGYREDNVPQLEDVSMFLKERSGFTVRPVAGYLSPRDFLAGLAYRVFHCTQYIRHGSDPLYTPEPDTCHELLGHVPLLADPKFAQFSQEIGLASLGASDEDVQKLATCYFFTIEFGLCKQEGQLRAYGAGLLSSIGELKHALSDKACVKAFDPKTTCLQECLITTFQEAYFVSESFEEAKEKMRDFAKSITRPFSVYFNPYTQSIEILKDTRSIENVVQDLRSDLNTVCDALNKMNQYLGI
# [14] = system: Rattus norvegicus; assay: Clearance in rat at 1 mg/kg, iv relative to hepatic blood flow; assay type: ADME, organism-based; conditions: in vivo
# [15] = Drug metabolism in rat hepatocytes assessed as hydroxylation by measuring 8-(2-amino-6-((R)-1-(4-chloro-2-(3-(hydroxymethyl)-1H-pyrazol-1-yl)phenyl)-2,2,2-trifluoroethoxy)pyrimidin-4-yl)-2,8-diazaspiro[4.5]decane-3-carboxylic acid level by LC/UV/MS method; assay type: ADME, cell-based, Hepatocyte
# [16] = Prodrug activation in rat hepatocytes assessed as ester hydrolysis by measuring 8-(2-amino-6-((R)-1-(4-chloro-2-(3-methyl-1H-pyrazol-1-yl)phenyl)-2,2,2-trifluoroethoxy)pyrimidin-4-yl)-2,8-diazaspiro[4.5]decane-3-carboxylic acid level by LC/UV/MS method; assay type: cell-based, Hepatocyte
# [17] = Drug metabolism in rat hepatocytes assessed as 8-(2-amino-6-((R)-1-(2-(3-carboxy-1H-pyrazol-1-yl)-4-chlorophenyl)-2,2,2-trifluoroethoxy)pyrimidin-4-yl)-2,8-diazaspiro[4.5]decane-3-carboxylic acid formation by LC/UV/MS method; assay type: ADME, cell-based, Hepatocyte
# [18] = Drug metabolism in rat hepatocytes assessed as 8-(2-amino-6-((R)-1-(4-chloro-2-(3-(sulfooxymethyl)-1H-pyrazol-1-yl)phenyl)-2,2,2-trifluoroethoxy)pyrimidin-4-yl)-2,8-diazaspiro[4.5]decane-3-carboxylic acid formation by LC/UV/MS method; assay type: ADME, cell-based, Hepatocyte
# [19] = system: Mus musculus; assay: Prodrug activation in mouse assessed as (S)-8-(2-amino-6-((R)-1-(5-chloro-3'-sulfamoylbiphenyl-2-yl)-2,2,2-trifluoroethoxy)pyrimidin-4-yl)-2,8-diazaspiro[4.5]decane-3-carboxylic acid formation at 10 to 50 mg/kg, po administered as single dose; assay type: organism-based; conditions: in vivo
# [20] = system: Mus musculus; assay: In vivo inhibition of TPH1 in mouse assessed as reduction in 5-HT level in intestinal mucosa at 10 mg/kg, po administered daily as single dose relative to control; assay type: functional
# [21] = as §1; assay type: ADME, organism-based; conditions: in vivo, read-out: Vdss
# [22] = as §2; assay type: ADME, organism-based; conditions: in vivo
# [23] = system: Rattus norvegicus; assay: Cmax in rat assessed as (S)-8-(2-amino-6-((R)-1-(5-chlorobiphenyl-2-yl)-2,2,2-trifluoroethoxy)pyrimidin-4-yl)-2,8-diazaspiro[4.5]decane-3-carboxylic acid level at 25 mg/kg, po; assay type: ADME, organism-based; design: dose 25 mg/kg, route oral; conditions: in vivo
# [24] = Clearance in rat at 1 mg/kg, iv; assay type: ADME, organism-based; conditions: in vivo
# [25] = system: Canis familiaris; assay: Half life in beagle dog assessed as (S)-8-(2-amino-6-((R)-1-(5-chlorobiphenyl-2-yl)-2,2,2-trifluoroethoxy)pyrimidin-4-yl)-2,8-diazaspiro[4.5]decane-3-carboxylic acid level at 1 mg/kg, iv; assay type: ADME, organism-based, Canis lupus familiaris; conditions: in vivo
# [26] = system: Canis familiaris; assay: AUC (0 to last) in beagle dog assessed as (S)-8-(2-amino-6-((R)-1-(5-chlorobiphenyl-2-yl)-2,2,2-trifluoroethoxy)pyrimidin-4-yl)-2,8-diazaspiro[4.5]decane-3-carboxylic acid level at 25 mg/kg, po; assay type: ADME, organism-based, Canis lupus familiaris; design: dose 25 mg/kg, time 0 - last, route oral; conditions: in vivo
# [27] = system: Canis familiaris; assay: as §3; assay type: ADME, organism-based, Canis lupus familiaris; conditions: in vivo
# [28] = system: Canis familiaris; assay: as §4; assay type: ADME, organism-based, Canis lupus familiaris; conditions: in vivo
# [29] = system: Rattus norvegicus; assay: AUC (0 to last) in rat assessed as (S)-8-(2-amino-6-((R)-1-(5-chlorobiphenyl-2-yl)-2,2,2-trifluoroethoxy)pyrimidin-4-yl)-2,8-diazaspiro[4.5]decane-3-carboxylic acid level at 25 mg/kg, po; assay type: ADME, organism-based; design: dose 25 mg/kg, route oral, time 0 - last; conditions: in vivo
# [30] = system: Canis familiaris; assay: Cmax in beagle dog assessed as (S)-8-(2-amino-6-((R)-1-(5-chlorobiphenyl-2-yl)-2,2,2-trifluoroethoxy)pyrimidin-4-yl)-2,8-diazaspiro[4.5]decane-3-carboxylic acid level at 25 mg/kg, po; assay type: ADME, organism-based, Canis lupus familiaris; design: dose 25 mg/kg, route oral; conditions: in vivo
# [31] = system: Mus musculus; assay: Prodrug activation in mouse assessed as (S)-8-(2-amino-6-((R)-1-(5-chlorobiphenyl-2-yl)-2,2,2-trifluoroethoxy)pyrimidin-4-yl)-2,8-diazaspiro[4.5]decane-3-carboxylic acid formation at 10 to 50 mg/kg, po administered as single dose; assay type: organism-based; conditions: in vivo
# [32] = system: Mus musculus; assay: Prodrug activation in mouse assessed as (S)-8-(2-amino-6-((R)-1-(5-chloro-3'-(methylsulfonyl)biphenyl-2-yl)-2,2,2-trifluoroethoxy)pyrimidin-4-yl)-2,8-diazaspiro[4.5]decane-3-carboxylic acid formation at 10 to 50 mg/kg, po administered as single dose; assay type: organism-based; conditions: in vivo
structure (smiles),measurement,setting,value
CCOC(=O)[C@@H]1CC2(CCN(c3cc(O[C@H](c4ccc(-c5ccc(C)c(C)c5)cc4-n4ccc(C)n4)C(F)(F)F)nc(N)n3)CC2)CN1,Cmax,[1],240 ng/mL
same,inhibition in vivo at 50 mg/kg,[2],70%
same,t1/2,[3],3.6 h
same,AUClast,[4],1634 ng·h/mL
Nc1nc(O[C@H](c2ccc(Cl)cc2-c2ccccc2)C(F)(F)F)cc(N2CCC3(CC2)CN[C@H](C(=O)O)C3)n1 [RODATRISTAT],Vdss,[5],7.8 L/kg
same,Drug metabolism,[6],Metabolite_Detected
same,t1/2,[7],12.1 h
same,CL,[8],4%
same,clearance,[9],1.2 mL/min/kg
same,Vd,[10],0.24 L/kg
same,half-life,[11],4.8 h
same,IC50,[12],33 nM
same,IC50,[13],7 nM
same,CL,[14],1.2%
CCOC(=O)C1CC2(CCN(c3cc(O[C@H](c4ccc(Cl)cc4-n4ccc(C)n4)C(F)(F)F)nc(N)n3)CC2)CN1 (stereo partly drawn),Drug metabolism,[15],Metabolite_Detected
same,Drug metabolism,[16],Metabolite_Detected
same,Drug metabolism,[17],Metabolite_Detected
same,Drug metabolism,[18],Metabolite_Detected
CCOC(=O)[C@@H]1CC2(CCN(c3cc(O[C@H](c4ccc(Cl)cc4-c4cccc(S(N)(=O)=O)c4)C(F)(F)F)nc(N)n3)CC2)CN1,Drug metabolism,[19],Metabolite_Detected
same,inhibition in vivo at 50 mg/kg,[2],42%
same,inhibition in vivo at 10 mg/kg,[20],15%
CCOC(=O)[C@@H]1CC2(CCN(c3cc(O[C@H](c4ccc(Cl)cc4-c4ccccc4)C(F)(F)F)nc(N)n3)CC2)CN1 [RODATRISTAT ETHYL],Vd,[21],12.7 L/kg
same,half-life,[22],3.18 h
same,CL,[8],46%
same,Cmax,[23],722 ng/mL
same,clearance,[24],106 mL/min/kg
same,t1/2,[25],7.59 h
same,AUClast,[26],32398 ng·h/mL
same,Vdss,[27],2.34 L/kg
same,t1/2,[28],5.05 h
same,inhibition in vivo at 50 mg/kg,[2],71%
same,inhibition in vivo at 10 mg/kg,[20],55%
same,AUClast,[29],5374 ng·h/mL
same,CL,[14],> 100%
same,Cmax,[30],2797 ng/mL
same,Drug metabolism,[31],Metabolite_Detected
CCOC(=O)[C@@H]1CC2(CCN(c3cc(O[C@H](c4ccc(Cl)cc4-c4cccc(S(C)(=O)=O)c4)C(F)(F)F)nc(N)n3)CC2)CN1,Drug metabolism,[32],Metabolite_Detected
same,inhibition in vivo at 50 mg/kg,[2],38%
